The test system of one experiment is NLRP3. Briefly: Immunofluorescence staining (fluorescence confocal assay) of NLRP3 in MSU-stimulated THP-1 cells. The format is cell-based, human. The note with it: PMA-primed THP-1 cells, then 100 μg/mL MSU for 6 hours. As for the experimental part:
(§1) The 20 mg of rhein powder was dissolved in 1 mL 100% dimethyl sulfoxide (DMSO), sterilized by 0.22 μm pore filter membranes, and stored at −20° C. before use. The monosodium urate (MSU) crystal (10 mg/mL) was prepared in sterilized phosphate buffered saline (PBS). The adenosine […] disodium salt (ATP) was dissolved in ddH2O and sterilized by 0.22 μm pore filter membranes. THP-1, human acute monocytic leukemia cell line (ATCC® TIB-202), were suspended in RPMI-1640 medium (GIBCO, Life Technologies, Grand Island, USA) supplemented with 10% fetal bovine serum and 1% of antibiotics (penicillin-streptomycin-amphotericin B) conditioned media. For macrophage-like differentiation, THP-1 cells were primed by 0.1 μM phorbol myristyl acetate (PMA) for 24 hours. […] For cell viability, PMA-primed THP-1 cells were detected in the presence or absence of rhein incubation for 24 hours by the Cell Counting Kit-8 (CCK-8 assay, Sigma-Aldrich, St Louis, USA). […] Fluorescence confocal assay was performed to detect the human ASC and NLRP3 expression in paraformaldehyde-fixed THP-1 cells after treatment. […] The stained areas of ASC (green) and NLRP3 (red) staining distributions were quantified and analyzed by Metamorph analyzer. […] P-value was determined by the two-tailed unpaired t-test.

The next experiment has as its system ASC. Briefly: Immunofluorescence staining (fluorescence confocal assay) of ASC in MSU-stimulated THP-1 cells. The format is cell-based, human. The note with it: PMA-primed THP-1 cells, then 100 μg/mL MSU for 6 hours. As for the experimental part: as §1

Molecules are shown by their SMILES.

`O=C(O)c1cc(O)c2c(c1)C(=O)c1cccc(O)c1C2=O` [rhein, 9, 10-dihydro-4,5-dihydroxy-9, 10-dioxo-2-anthracene carboxylic acid]: the “inhibition of NLRP3 levels, average intensity of area/cell” value in the experiment on NLRP3 (rhein 5 μg/mL overnight (lower dose), P=0.014) is given as “about 62.5%”; with NLRP3 (rhein 10 μg/mL overnight (higher dose), P=0.0012), ~84.1%. Moreover, the “decrease of staining of ASC sections, average intensity of area/cell” value in the experiment with ASC (rhein 5 μg/mL overnight (lower dose), P=0.0011) is listed as “about 64.0%”; in the experiment on ASC (rhein 10 μg/mL overnight (higher dose), P=0.0022), ~79.0%.

The record behind these values is patent publication US10195170B2, “Methods for inhibiting expression of ASC, expression of NLRP3, and/or formation of NLRP3 inflammasome complex using diacerein or its analogs” (TWi Biotechnology, Inc., priority 2015, dated 2019).
